From patent US12403114B2, “Cannabinoid acid ester compositions and uses thereof” (EPM (IP), INC., priority 2019, dated 2025)

Columns and labels:
[1] = tested on: partial meniscectomy/ACL transection rat model of surgical induced osteoarthritis and pain induced incapacitance; assay: Weight bearing in rat meniscectomy model versus hyaluronate and corticosteroid, Example 6; type: in vivo
Procedure: Rats were allowed to acclimatize for 1 week, followed by assessment of their weight bearing preference using an incapacitance meter. Unilateral medical meniscectomy and anterior cruciate ligament […] (MMX/ACLT) surgery was performed on the right knee of a subject rat. Weight bearing preference was tested before and after surgery. After 2 weeks, treatments with both intra-articular (1) and. intra-peritoneal (6) administrations of EPM301 began in the EPM301 group. In the hyaluronate (HA) and corticosteroid (CS) groups, a single intra-articular injection was performed 2 weeks after model induction. Weight bearing preference was then assessed 4 and 7 days after the start of therapy.
Wistar Rats (HsdHan female rats 225-249 grams) were acquired from Envigo. The rats were evaluated using an incapacitance tester. They were tested pre-operation, one-week post-operation, two weeks post-operation, prior to injection, 4 and 7 days post injections.
EPM-301 was dissolved in a solution mixture of 1:1:18 EtOH:cremophor:seline to a final concentration of 3.5 mg/mL. Hyaluronic acid (Arthrease, 1% sodium hyaluronate) and Dexamethasone (kem Pharma, Venus, 72, Pol. Ind. Colom II, 08228 Terrassa, Barcelona) were acquired.
Intra-articular (i.a.) injection was carried out with 100 uL and intra-peritoneal (i.p.) injections were carried out with 150 uL. All were injected i.a. in the first day. EPM-301 was injected via i.p. administration on the first day, and for 5 additional days everyday via i.p. administration.
Student's t-test was performed at the last follow-up time to determine effect of the therapy as primary endpoint. The level of significance was 0.05 alpha. ANOVA was used to compare all time points, a post-hob analysis with the Scheffe all comparisons method was performed. Calculations were performed using the Analyze-it Excel add-on function.
The percentage of weight bearing was calculated as the amount of weight born (in grams) on the right hind limb divided by the amount of weight born on the left hind limb. This ratio was expressed as percentage weight bearing. Prior to operation the Rt/Lt weight bearing in both groups was similar. There were 4 animals in the EPM-301 treated group and 8 animals in each of the HA and CS treated groups, with a total of 20 tested subjects.

[2] = tested on: DSS induced acute colitis; assay: DSS induced acute colitis mouse model, EPM-301 versus EPM-302, Example 13; type: in vivo, C57BL/6 mice
Procedure: Colitis was induced in 10 weeks old female C57BL/6 mice using dextran sodium sulphate (DSS). Mice were fed for 8 days with 2% (wt/vol) DSS in their drinking water. […] EPM-302 served as an additional control.
Weight loss was measured on days 1, 3, 5, 8, and 10.
Next, the mice were sacrificed and the length of their colons were measured.
Cytokine levels of IL-6 and TNFα were measured using ELISA kits (R&D Systems, USA). Colon TNFα (FIG. 19), blood IL-6 (FIG. 20), levels were lower in mice treated with CBDA-Me (EPM-301) as compared to EPM-302. Similarly, the MEICS score of EPM-301 treated subjects were also lower than EPM-302 treated subjects (FIG. 21). Representative photos of colonoscopy can be seen in FIG. 22A-22D.

[3] = molecular target: T1, glucose transporter 2 (GLUT2) (Homo sapiens, UniProt P11168); assay: 2-NBDG glucose uptake in transfected HEK293t cells; type: cell-based; settings: 50-0.1 μM tested
T1 construct: expressed in transfected cells; host or cells: HEK293t
T1 sequence (P11168 1-524): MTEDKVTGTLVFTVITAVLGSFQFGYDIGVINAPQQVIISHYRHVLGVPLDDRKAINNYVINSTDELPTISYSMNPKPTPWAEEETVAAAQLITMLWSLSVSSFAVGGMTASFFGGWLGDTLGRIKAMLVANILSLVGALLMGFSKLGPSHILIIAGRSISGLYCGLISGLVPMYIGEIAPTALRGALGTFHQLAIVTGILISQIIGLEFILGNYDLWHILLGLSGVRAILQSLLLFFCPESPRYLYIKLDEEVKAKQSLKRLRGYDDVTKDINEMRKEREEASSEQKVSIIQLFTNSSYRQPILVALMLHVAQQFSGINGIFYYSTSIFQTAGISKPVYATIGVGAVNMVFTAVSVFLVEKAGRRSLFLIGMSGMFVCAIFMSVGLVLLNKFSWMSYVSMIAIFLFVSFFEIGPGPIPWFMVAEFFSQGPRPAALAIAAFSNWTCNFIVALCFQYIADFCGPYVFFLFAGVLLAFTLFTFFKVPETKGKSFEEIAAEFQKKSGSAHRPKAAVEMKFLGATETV
Procedure: In vitro assays for measuring glucose uptake were designed to assess whether EPM-301 and EPM-302 compounds are capable of inhibiting or increasing glucose uptake via glucose transporters (GLUTs).
Transfected HEK293t cells, which express the glucose transporter 2 (GLUT2), were cultured in a 96 well plate and maintained at 37° C. in 5% CO2 in DMEM medium supplemented with 10% FCS, 2 mM 1-glutamine, 1 mM sodium pyruvate, 100 U/mL penicillin, and […] streptomycin for 24 h. The medium was then washed with a choline chloride Na^+-free buffer (CCB), in which only GLUTs (and not the sodium/glucose transporters [SGLTs]) were active. The wells were then added with CCB/CCB+2-NBDG (a fluorescent derivative of glucose). Compounds were tested in a range of concentrations for their ability to inhibit/increase 2-NBDG uptake into the cells. After 1.5 h incubation, cells were washed with CCB and incubated with 1 μg/μL of Hoechst for 15 mins at 37° C. and protected from light. Fluorescence was measured by the Cytation-3 plate reader at ex:485 nm/em:528 nm and ex:350 nm/em:461 nm for 2-NBDG Hoechst, respectively. Results of the 2-NBDG levels were normalized to Hoechst levels of each well, and presented as a change in the uptake of 2-NBDG in comparison with Vehicle-treated group.
Vehicle solution (choline chloride buffer), EPM-301 (50-0.1 μM), and EPM-302 (50-0.1 μM) were used for the experiments.
Values are expressed as mean±SEM. Unpaired two-tailed student's t-test was used to determine the differences between the groups. Significance was set at p<0.05. *versus vehicle; #versus control.

C=C(C)[C@@H]1CCC(C)=CC1c1c(O)cc(CCCCC)c(C(=O)OC)c1O (stereo partly shown) [EPM-301, cannabidiolic acid methyl ester]
Rt limb weight bearing ([1]; following injections, EPM-301 i.a. once plus i.p. 6 days, HA and CS single i.a. injection): 99.1% | weight bearing ([1]; immediately prior to injection, two weeks following model induction (baseline before treatment)): 56.6% | therapeutic effect ([2]; 10 mg/kg): not enough to induce a therapeutic effect | weight loss ([2]; 40 mg/kg by gavage, compared to CBD and EPM-302 (FIG. 17)): reduced | colon length ([2]; 40 mg/kg, versus EPM-302 and untreated mice, similar to prednisone (FIG. 18)): greater/longer | colon TNFα ([2]; as compared to EPM-302, ELISA (FIG. 19)): lower | blood IL-6 ([2]; as compared to EPM-302, ELISA (FIG. 20)): lower | MEICS score ([2]; versus EPM-302 treated subjects (FIG. 21)): lower | concentration at which the effect on glucose transport was observed [3]: 50 µM | glucose uptake (2-NBDG) in HEK293 cells ([3]; 1.5 h incubation, versus vehicle (FIG. 36A, 36B)): significantly reduce
